≈ marks a conversion by molar mass, not a printed value. Like-named read-outs stand apart in the source and are kept apart here. Peptide text beside a SMILES is read from it.
What was measured:
E. coli B2 persisters = experiment: Bactericidal activity against persisters; assay type: cell-based, Escherichia coli
Experimental: (§1) Briefly, the bacteria suspensions after washing were exposed to 50-fold MIC concentrations of vancomycin and tigecycline, respectively, and co-incubation for 4 h to obtain persister cells. […] Subsequently, the primary CFUs/mL were calculated.

P. aeruginosa PA14 = experiment: microbe, parasite or virus in culture; assay type: cell-based, Pseudomonas aeruginosa; conditions: PA14
Procedure, shortened: (§2)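 Bacteria are grown to exponential phase, diluted 1:1000 in MHB, then combined at 1.5 × 10^6 CFUs/mL with different peptide concentrations. MICs follow standard CLSI2021 broth micro-dilution.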

MRSA T144 persisters = experiment: Bactericidal activity against persisters; assay type: cell-based, Staphylococcus aureus; conditions: within 2 h
Experimental: as §1

[1] = tested on: A. baumannii C222 (tet(X6)); experiment: microbe, parasite or virus in culture; assay type: cell-based, Acinetobacter baumannii; conditions: C222 (tet(X6))
Procedure, shortened: as §2

A. baumannii ATCC 19609 = experiment: microbe, parasite or virus in culture; assay type: cell-based, Acinetobacter baumannii; conditions: ATCC 19609
Procedure, shortened: as §2

MRSA T144 = assay type: cell-based, Staphylococcus aureus; conditions: MRSA T144
Experimental: MRSA T144 and E. coli B2 in the exponential growth phase were incubated with LI14 peptide supplemented with 10 mM Na^+, K^+, Mg^2+, 10% Dulbecco’s modified Eagle medium (DMEM), and 10% fetal bovine serum (FBS) for 16–18 h. The stability of LI14 was evaluated by the change of its antibacterial activity under different conditions.
LI14 were preincubated for 1 h at various temperatures (40–121 °C), pH (2–12), and proteases (pepsin, trypsin, and papain, final concentration 1 mg/mL). […] Following the incubation with the proteases, the leftover protease was precipitated with acetonitrile and removed by centrifugation at 3000 × g, followed by a MIC test.
Supplementary Table 4 Thermal, pH, salts and protease stability of AMPs against
MRSA T144 and E. coli B2 (MIC, μg/mL).
Treatment MRSA T144 E. coli B2

E. faecium 5F-10 = experiment: microbe, parasite or virus in culture; assay type: cell-based, Enterococcus faecium; conditions: 5F-10
Procedure, shortened: as §2

[2] = tested on: MRSA T144 and E. coli B2 established biofilms; experiment: Treatment of established biofilms; assay type: cell-based; conditions: 128 μg/mL LI14, 2 h
Experimental: In MHB medium, a mid-logarithmic growth-phase culture was diluted to 10^6 CFUs/ml. A 96-well flat bottom plate was filled with 100 μL of this bacterial suspension per well, which was cultured at 37 °C for 36 h to create mature biofilms. […] Plates were sonicated for 10 min after incubation to remove adhering bacteria, and the number of live bacteria was counted microbiologically.

CD-1 mice = assay type: in vivo; conditions: 10 mg/kg i.p. daily for 6 days, n = 4
Experimental: LI14 (10 mg/kg, body weight) was intra-peritoneally injected into CD-1 mice (n = 4 biologically independent animals per group) every day for 6 days[64]. Mice were weighed daily and the behaviors of the mice were inspected for one week. Blood from mice was collected on the seventh day for whole-blood cell analysis and kidney chemistry profile. At the same time, the heart, liver, spleen, lung, and kidney of mice were collected for H.E. staining.
Supplementary Fig. 5 In vivo toxicity assessment of LI14 peptide.
(a) Scheme of the LI14 peptide toxicity study in mice. CD-1 female mice (n = 4 biologically independent animals per group) were intraperitoneally administered with LI14 (10 mg/kg) daily […]. (b-e) Body weight (b), whole-blood cell profiles (c), serum biochemical […]
(1 picture or pasted object on this page, not shown here)

S. aureus ATCC 29213 = experiment: Resistance development study, serial passages; assay type: cell-based, Staphylococcus aureus; conditions: 80 serial passages at sub-inhibitory concentration (0.5-fold MIC)
Experimental: The ability of LI14 peptide to induce resistance was studied as previously described. Resistance to the therapeutically important drugs rifampicin and ciprofloxacin was measured using S. aureus ATCC 29213 and E. coli ATCC 25922 as test strains. The middle and final MICs were monitored after eighty such serial passages exposed to the tested medicines (0.5-fold MIC), and the fold change in MIC increase was recorded.

MRSA T144 or E. coli B2 = experiment: Rat skin wound infection model; assay type: in vivo, rats; conditions: MRSA T144 or E. coli B2 infected skin wound; LI14 5 or 10 μg topically; 8 days; n = 4
Experimental: The rats (n = 4 biologically independent animals per group) were anesthetized and a 2 cm wound model was constructed on their back. Then, 100 μL of MRSA T144 or E. coli B2 cultures were dropped on the wounds (10^6 CFUs per mouse), respectively. At 1 h post-infection, 100 μL of LI14 peptide (5 or 10 μg), or the combination of LI14 peptide with ampicillin/rifampicin (5 + 5 μg) were gently inoculated over the scar with a pipette tip, respectively. Wound size was recorded for 8 days, and on the 8th day, the rats were euthanized, and wound tissue was removed aseptically to measure CFUs and for following hematoxylin and eosin (H&E) staining.
(a-d) Mouse skin wound infection models by MRSA T144 (n = 4 biologically independent animals per group). a Photographs of wounds treated with LI14 (5 μg and 10 μg) or in combination with ampicillin (5 + 5 μg) for 0, 4 and 8 days (scale bar, 1 cm). (b) The wound size at 0th, 4th and 8th day after infection by MRSA T144. (c) The subeschar bacterial colonies at 8th day. (d) H.E. staining for the histological change of skin wound at 8th day (scale bar, […]
(e-h) Mouse skin wound infection models by E. coli B2 (n = 4 biologically independent animals per group). (e) Photographs of wounds treated with LI14 (5 μg and 10 μg) or in combination with rifampicin for (5 + 5 μg) for 0, 4 and 8 days (scale bar, 1 cm). […]

SMILES: CC[C@H](C)[C@H](NC(=O)[C@H](CCCNC(=N)N)NC(=O)[C@H](CS)NC(=O)[C@H](CC(C)C)NC(=O)[C@H](CCCCN)NC(=O)[C@H](CCCCN)NC(=O)[C@H](CC(C)C)NC(=O)[C@@H](NC(=O)[C@H](CCCNC(=N)N)NC(=O)[C@H](CS)NC(=O)[C@H](CC(C)C)NC(=O)[C@H](CCCCN)NC(=O)[C@H](CCCCN)NC(=O)[C@@H](N)CC(C)C)[C@@H](C)CC)C(N)=O [LI14] (H-LKKLCRILKKLCRI-NH2)
- Removal rate of persisters (E. coli B2 persisters; 128 μg/mL of LI14): more than 99%
- Clearance rate against persisters (E. coli B2 persisters; within 2 h): above 99%
- MIC (P. aeruginosa PA14): 16 µg/mL (≈ 9.26 µM)
- Clearance rate against persisters (MRSA T144 persisters): above 99%
- MIC [1]: 16 µg/mL (≈ 9.26 µM)
- MIC (A. baumannii ATCC 19609): 8 µg/mL (≈ 4.63 µM)
- MIC (MRSA T144; Control): 4 µg/mL (≈ 2.32 µM)
- MIC (MRSA T144; peptide preincubated 1 h at 40℃): 4 µg/mL (≈ 2.32 µM)
- MIC (MRSA T144; peptide preincubated 1 h at 60℃): 4 µg/mL (≈ 2.32 µM)
- MIC (MRSA T144; peptide preincubated 1 h at 80℃): 4 µg/mL (≈ 2.32 µM)
- MIC (MRSA T144; peptide preincubated 1 h at pH 8, readjusted to pH 7.2): 4 µg/mL (≈ 2.32 µM)
- MIC (MRSA T144; peptide preincubated 1 h at pH 12, readjusted to pH 7.2): 4 µg/mL (≈ 2.32 µM)
- MIC (MRSA T144; peptide preincubated 1 h with Pepsin 1 mg/mL): 4 µg/mL (≈ 2.32 µM)
- MIC (E. faecium 5F-10): 64 µg/mL (≈ 37.1 µM)
- Eradication of established biofilms [2]: almost eradicated all established biofilms
- Behavior and body weight (CD-1 mice): did not observe murine behavior changes or body weight loss
- H.E. staining of heart, liver, spleen, lung, kidney (CD-1 mice): no significant difference in histological morphology
- Whole-blood cell profiles and serum biochemical index (CD-1 mice): no significant difference compared with the control group
- Increase in MIC after serial passages (S. aureus ATCC 29213): 8 fold
- Wound closure and number of colonies (MRSA T144 or E. coli B2): distinctly improved wound closure and decreased the number of colonies
